target: T1, human vasopressin V1b receptor (Homo sapiens, UniProt P47901); assay: Vasopressin V1b receptor binding test; conditions: membranes of CHO-K1 cells with human V1b receptor, displacement of 1.5 nM 3H-AVP; for compounds with more than one stereogenic center the diastereomer with greater affinity
T1 construct: expressed in transfected cells; host or cells: CHO-K1 (cell line hV1b_3H2_CHO), membrane preparation
T1 sequence (P47901 1-424): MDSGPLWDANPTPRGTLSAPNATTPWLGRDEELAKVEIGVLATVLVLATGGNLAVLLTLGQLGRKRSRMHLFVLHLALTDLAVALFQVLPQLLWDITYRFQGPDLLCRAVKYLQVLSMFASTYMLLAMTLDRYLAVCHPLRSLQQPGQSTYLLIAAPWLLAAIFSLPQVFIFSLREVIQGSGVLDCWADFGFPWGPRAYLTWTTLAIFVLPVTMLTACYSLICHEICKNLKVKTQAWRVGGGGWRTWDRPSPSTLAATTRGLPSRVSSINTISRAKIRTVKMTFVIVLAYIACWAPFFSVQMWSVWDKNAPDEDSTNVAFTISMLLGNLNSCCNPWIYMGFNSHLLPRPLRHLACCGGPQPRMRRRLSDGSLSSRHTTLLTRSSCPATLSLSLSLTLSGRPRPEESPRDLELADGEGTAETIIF
Summary of the method: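 Radioligand displacement on membranes carrying human V1b receptor in 50 mM tris, 10 mM MgCl2, 0.1% BSA, pH 7.4, 2% DMSO final; 60 min at room temperature, nonspecific binding with 1 μM AVP. Free ligand removed by filtration, bound counted by liquid scintillation, Ki from nonlinear regression of triplicates.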

Compared with `CCN1CCN(Cc2ccc(OC)c(C3(N4CCC[C@@]4(C)c4ncco4)C(=O)N(S(=O)(=O)c4ccc(OC)cc4)c4ccc(Cl)cc43)c2)CC1` (stereo partly drawn) [Example 232, 5-Chloro-3-[5-(4-ethylpiperazin-1-ylmethyl)-2-methoxyphenyl]-1-(4-methoxybenzenesulfonyl)-3-((S)-2-methyl-2-oxazol-2-yl-pyrrolidin-1-yl)-1,3-dihydroindol-2-one], `COc1ccc(S(=O)(=O)N2C(=O)C(c3cc(CN4CCN(CCO)CC4)ccc3OC)(N3CCC[C@H]3c3ncc(C)o3)c3cc(Cl)ccc32)cc1` (stereo partly drawn) [Example 233, 5-Chloro-3-{5-[4-(2-hydroxyethyl)piperazin-1-ylmethyl]-2-methoxyphenyl}-1-(4-methoxybenzenesulfonyl)-3-[(S)-2-(5-methyloxazol-2-yl)-pyrrolidin-1-yl]-1,3-dihydroindol-2-one] is higher in Ki: under 10 nM for the first, 10 to 100 nM for the second.

`COc1ccc(S(=O)(=O)N2C(=O)C(c3cc(CN(C)C)ccc3OC)(N3CCC[C@H]3c3ncc(C)o3)c3cc(Cl)ccc32)cc1` (stereo partly drawn) [Example 234, 5-Chloro-3-(5-dimethylaminomethyl-2-methoxyphenyl)-1-(4-methoxybenzenesulfonyl)-3-[(S)-2-(5-methyloxazol-2-yl)-pyrrolidin-1-yl]-1,3-dihydroindol-2-one] and `COc1ccc(S(=O)(=O)N2C(=O)C(c3cc(CN4CCN(C)CC4)ccc3OC)(N3CCC[C@H]3c3ncc(C)o3)c3cc(Cl)ccc32)cc1` (stereo partly drawn) [Example 235, 5-Chloro-1-(4-methoxybenzenesulfonyl)-3-[2-methoxy-5-(4-methylpiperazin-1-ylmethyl)phenyl]-3-[(S)-2-(5-methyloxazol-2-yl)-pyrrolidin-1-yl]-1,3-dihydroindol-2-one] fall in the same range of Ki: 10 to 100 nM for the first, 10 to 100 nM for the second.

— US8044079B2, “Substituted oxindole derivatives, medicaments containing said derivatives and use thereof” (Abbott GmbH & Co. KG, priority 2005, dated 2011)
